In data set [1] the target is VEGF-R2 (KDR) (Homo sapiens, UniProt P35968). Description: Inhibition of the tyrosine kinase activity of VEGF-R2 (KDR). In kind it is biochemical. Here is the method: Inhibition of the Tyrosine Kinase Activity of VEGF-R2 (KDR)
The inhibition test is carried out as described above.

Data set [2] is described as follows: Percutaneous penetration/permeation in static Franz-type diffusion cells with split-thickness human cadaver skin. In kind it is in vitro ADME. Particulars: batch of skin 4.
Experiment in data set [3]: as above
In kind it is in vitro ADME. Particulars: solution a (propylene glycol); batch of skin 4. The method, then:
Frozen human dorsal cadaver skin (Caucasian; back skin) was obtained from the National Disease Research Interchange, Philadelphia, USA. Skin from three different donors was used;
Thawed skin samples were dermatomed to 0.7 mm with an Aesculap dermatome to obtain “split-thickness” skin.
Percutaneous penetration was studied in vitro by means of static Franz-type diffusion cells with phosphate buffered saline/fetal calf serum 2:1 as receptor fluid at 32° in triplicates for 48 hours. The compounds were applied as 1% solutions (300 μl each) in propylene glycol (solution a) or in propylene glycol/oleyl alcohol 9:1 (solution b). Samples of 100 μl were taken 5 to 7 times and replaced by fresh receptor fluid as described previously (Schmook, et al., Skin Pharmacol. 1993, 6:116-124).
Drug analysis was performed with specimens of the exposed skin (at the end of the 48 hours experiment), from which the stratum corneum had been removed by 20 strippings with an adhesive tape. The weighed skin samples were homogenized in 0.2 M ammonium phosphate buffer (pH 7.0). The homogenates were extracted with ethyl acetate and processed as described (Schmook, et al 1993).

Setting [4] is: solution c (propylene glycol containing 0.1% DMSO).
[5] abbreviates: solution d (propylene glycol containing 1% DMSO).

SMILES strings stand for the structures.

Sequence of VEGF-R2 (KDR) (P35968 20-1356, species assumed): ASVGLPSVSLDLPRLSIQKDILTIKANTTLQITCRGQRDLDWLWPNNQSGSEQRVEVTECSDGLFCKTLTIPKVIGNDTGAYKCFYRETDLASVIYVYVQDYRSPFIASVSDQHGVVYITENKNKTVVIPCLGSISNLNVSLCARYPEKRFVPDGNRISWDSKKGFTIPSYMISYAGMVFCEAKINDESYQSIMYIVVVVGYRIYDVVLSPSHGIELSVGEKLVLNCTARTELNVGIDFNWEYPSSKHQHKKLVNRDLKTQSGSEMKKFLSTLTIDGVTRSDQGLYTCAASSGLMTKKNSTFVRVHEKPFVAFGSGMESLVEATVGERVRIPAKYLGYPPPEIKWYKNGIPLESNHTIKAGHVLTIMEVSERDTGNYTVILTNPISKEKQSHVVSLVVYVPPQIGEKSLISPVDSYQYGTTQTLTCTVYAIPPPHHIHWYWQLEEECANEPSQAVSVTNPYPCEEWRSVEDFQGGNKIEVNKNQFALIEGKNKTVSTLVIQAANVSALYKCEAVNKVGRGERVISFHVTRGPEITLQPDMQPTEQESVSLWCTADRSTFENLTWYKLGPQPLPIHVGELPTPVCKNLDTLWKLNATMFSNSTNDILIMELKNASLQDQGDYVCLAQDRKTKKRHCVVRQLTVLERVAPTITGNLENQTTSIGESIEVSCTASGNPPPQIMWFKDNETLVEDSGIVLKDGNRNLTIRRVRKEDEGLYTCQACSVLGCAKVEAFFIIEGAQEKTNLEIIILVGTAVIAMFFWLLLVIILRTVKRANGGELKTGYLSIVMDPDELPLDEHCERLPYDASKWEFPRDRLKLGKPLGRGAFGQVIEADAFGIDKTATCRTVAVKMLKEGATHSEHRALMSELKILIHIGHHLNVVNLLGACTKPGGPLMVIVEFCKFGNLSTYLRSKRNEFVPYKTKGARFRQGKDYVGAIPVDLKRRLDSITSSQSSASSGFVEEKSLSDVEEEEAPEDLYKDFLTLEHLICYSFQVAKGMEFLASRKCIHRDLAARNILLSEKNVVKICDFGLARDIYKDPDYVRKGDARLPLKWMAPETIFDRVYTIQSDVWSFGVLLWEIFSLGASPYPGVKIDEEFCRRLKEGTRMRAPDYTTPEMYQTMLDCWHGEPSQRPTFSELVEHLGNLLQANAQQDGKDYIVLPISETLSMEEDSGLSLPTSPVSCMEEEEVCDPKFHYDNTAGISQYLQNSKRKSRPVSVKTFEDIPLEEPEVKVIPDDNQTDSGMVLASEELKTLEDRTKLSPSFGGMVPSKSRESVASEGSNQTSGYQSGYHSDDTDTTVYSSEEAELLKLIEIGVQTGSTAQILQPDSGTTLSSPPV

`Nc1nccc(Oc2ccc3c(c2)OCCN3C(=O)Nc2ccc(Cl)c(C(F)(F)F)c2)n1` [12b)] returned a half-inhibitory concentration (IC50) in data set [1] of 10 nM. The same measure, in the same setting: with `Nc1nccc(Oc2ccc3c(C(=O)Nc4ccc(C(F)(F)F)cc4)cccc3c2)n1` [17a)] the figure was 19 nM; with `CC(C)(C)c1ccc(NC(=O)c2cccc3cc(Oc4ccnc(N)n4)ccc23)cc1` [17b)], 54 nM. Turning to `CNc1cc(Oc2ccc3c(c2)OCCN3C(=O)Nc2ccc(C)c(C(F)(F)F)c2)ncn1` [Example 8, 7-(6-Methylamino-pyrimidin-4-yloxy)-2,3-dihydro-benzo[1,4]oxazine-4-carboxylic acid (4-methyl-3-trifluoromethyl-phenyl)-amide], the melting point is 180 to 182 °C. Moreover, the IC50 in data set [1] worked out at 46 nM. In data set [1], `Nc1nccc(Oc2ccc3c(c2)OCCN3C(=O)Nc2ccc(C(F)(F)F)c(C(F)(F)F)c2)n1` [12a)] showed an IC50 of 52 nM.

In turn, `Nc1nccc(Oc2ccc3c(c2)OCCN3C(=O)Nc2ccc(F)c(C(F)(F)F)c2)n1` [12d)] returned an IC50 in data set [1] of 73 nM. Same read-out and setting: with `CN1CCN(Cc2ccc(NC(=O)N3CCOc4cc(Oc5ccnc(N)n5)ccc43)cc2C(F)(F)F)CC1` [Example 22, 7-(2-Amino-pyrimidin-4-yloxy)-2,3-dihydro-benzo[1,4]oxazine-4-carboxylic acid [4-(4-methyl-piperazin-1-ylmethyl)-3-trifluoromethyl-phenyl]-amide] the figure was 96 nM. For the compound `Nc1nccc(Oc2ccc3c(C(=O)Nc4cccc(C(F)(F)F)c4)cccc3c2)n1` [formula Ip], the Permeation rate in data set [2] (setting [4]), in data set [2] (setting [5]) and in data set [3] was less than 2 ng/mL/h in each case. For the same compound, the values for the Skin concentration in data set [2] (setting [4]), in data set [2] (setting [5]) and in data set [3] were 4.4 ± 3.1 µg/g, 4.7 ± 2.9 µg/g and 6.2 ± 1.5 µg/g, respectively. `CNc1cc(Oc2ccc3c(c2)OCCN3C(=O)Nc2cccc(C(F)(F)F)c2)ncn1` [Example 9, 7-(6-Methylamino-pyrimidin-4-yloxy)-2,3-dihydro-benzo[1,4]oxazine-4-carboxylic acid (3-trifluoromethyl-phenyl)-amide] yielded a melting point of 180 °C. For the same compound, the midpoint of inhibition in data set [1], the IC50, lay at 29 nM. Regarding `CC(=O)Nc1nccc(Oc2ccc3c(c2)OCCN3C(=O)Nc2ccc(C)c(C(F)(F)F)c2)n1` [Example 20, 7-(2-Acetylamino-pyrimidin-4-yloxy)-2,3-dihydro-benzo[1,4]oxazine-4-carboxylic acid (4-methyl-3-trifluoromethyl-phenyl)-amide], in data set [1], the midpoint of inhibition, the IC50, lay at 24 nM. For `Cc1ccc(NC(=O)N2CCOc3cc(Oc4ccnc(N)n4)ccc32)cc1C(F)(F)F` [12f), 7-(2-amino-pyrimidin-4-yloxy)-2,3-dihydro-benzo[1,4]oxazine-4-carboxylic acid (4-methyl-3-trifluoromethyl-phenyl)-amide], the IC50 in data set [1] was 17 nM. `COC(=O)Nc1nccc(Oc2ccc3c(c2)OCCN3C(=O)Nc2ccc(C)c(C(F)(F)F)c2)n1` [Example 21, 7-(2-Methoxycarbonylamino-pyrimidin-4-yloxy)-2,3-dihydro-benzo[1,4]oxazine-4-carboxylic acid (4-methyl-3-trifluoromethyl-phenyl)-amide] registered an IC50 in data set [1] of 19 nM. Turning to `CC(=O)Nc1nccc(Oc2ccc3c(C(=O)Nc4cccc(C(F)(F)F)c4)cccc3c2)n1` [Example 18, 6-(2-Acetylamino-pyrimidin-4-yloxy)-naphthalene-1-carboxylic acid (3-trifluoromethyl-phenyl)-amide], the melting point lay within 216 to 217 °C. Moreover, the IC50 in data set [1] was 21 nM. The compound `Cc1ccc(NC(=O)c2cccc3cc(Oc4ccnc(N)n4)ccc23)cc1C(F)(F)F` [Example 15, 6-(2-Amino-pyrimidin-4-yloxy)-naphthalene-1-carboxylic acid (4-methyl-3-trifluoromethyl-phenyl)-amide] showed a concentration for half-maximal inhibition (IC50) in data set [1] of 20 nM. Turning to `Nc1nccc(Oc2ccc3c(c2)OCCN3C(=O)Nc2cccc(C(F)(F)F)c2)n1` [Example 10, 7-(2-Amino-pyrimidin-4-yloxy)-2,3-dihydro-benzo[1,4]oxazine-4-carboxylic acid (3-trifluoromethyl-phenyl)-amide], the melting point fell in the range of 161 to 163 °C. In addition, in data set [1], half-maximal inhibition (IC50) was put at 37 nM.

(Values after patent US20120172386A1, “Combinations Comprising a VEGF Receptor Inhibitor” (NOVARTIS AG, priority 2005, published 2012).)
